How the values were obtained:
[1] = tested on: E. multilocularis metacestode vesicles; experiment: Phosphoglucose isomerase (PGI) release assay (damage-marker release) on metacestode vesicles; type: cell-based, Echinococcus multilocularis; conditions: 10 μM; for PGI d5 (relative PGI release): 5 days; for PGI d12 (relative PGI release): 12 days
Method: In order to quantify the drug-induced damage on whole metacestode vesicles, phosphoglucose isomerase (PGI) assay was performed as described previously ([Stadelmann et al., 2010]) with few adaptations published recently ([Kaethner et al., 2023]). In short, 8 to 12 weeks-old metacestode vesicles were purified using 2 % sucrose with subsequent washes in PBS. Metacestode vesicles were diluted in two volumes of DMEM without phenol red containing penicillin (100 U/mL) and streptomycin (100 μg/mL). […] 0.1 % DMSO was used as a negative solvent control and 0.1 % Triton X-100 was used as a positive total damage control. Metacestode vesicles were incubated under a humid, 5 % CO2 atmosphere at 37 °C. After five and twelve days, supernatant was taken and pictures were made using a Nikon SMZ18 stereo microscope (Nikon, Basel, Switzerland) at 7.5 × magnification. PGI activity in the supernatants was measured on a HIDEX Sense microplate reader (Hidex, Turku, Finland). The corresponding values of the DMSO controls were subtracted from the values of the compounds and then PGI activity was calculated relative to 0.1 % Triton X-100. […] IC50 values were calculated applying the 3 parameter Weibull type 1 in R for each of the three independent experiments ([Ritler et al., 2020]).

[2] = tested on: E. multilocularis metacestode vesicles; experiment: Metacestode vesicle viability assay (ATP, CellTiter-Glo); type: cell-based, Echinococcus multilocularis
Method: Viability was assessed after 12 days using the same metacestode vesicles as for the PGI release assay. Triton X-100 was added to each well to a final concentration of 0.1 %. Subsequently the metacestode vesicles were broken mechanically and 50 μL of the supernatant was mixed with 50 μL of CellTiter-Glo® buffer (Promega, Dübendorf, Switzerland). Measurements were performed on a HIDEX Sense microplate reader.

[3] = overview screen, singlets, relative to 0.1 % Triton X-100, DMSO subtracted
[4] = overview screen, 10 μM, singlets, 12 days, relative to DMSO control
[5] = confirmation screen, triplicates, mean
[6] = confirmation screen, 10 μM, triplicates, mean, 12 days

Structure (SMILES)	PGI d5 (relative PGI release) [1, 3] [%]	PGI d12 (relative PGI release) [1, 3] [%]	Viability d12 (relative viability) [2, 4] [%]	PGI d5 (relative PGI release) [1, 5] [%]	PGI d12 (relative PGI release) [1, 5] [%]	Viability d12 (relative viability) [2, 6] [%]	Viability d12 (relative viability) ([2]; 10 µM) [%]
Nc1nnc(-c2ccc(Cl)cc2)s1 [MMV046261]	0.5147	3.499	11.5226				
NC(=O)c1c(N)sc2c1CCCCC2 [MMV056052]	0.2417	3.2439	78.9817				
CC1CN(c2ncnc3c2c(-c2ccccc2)cn3-c2ccc(F)cc2)CC(C)O1 (stereo not drawn) [MMV093250]	0.6968	49.8105	6.513	0.08	-0.45	29.29	
COc1cc(NS(=O)(=O)c2ccc(C)cc2)c2ncccc2c1 [MMV098836]	-0.2103	2.3899	72.5053				
Nc1c(C(=O)NCc2ccco2)c2nc3ccccc3nc2n1CCN1CCCCC1 [MMV099714]	2.984	44.8288	63.8129				
COc1cc2c(O)c3c(c(-c4ccc5c(c4)OCO5)c2cc1OC)C(=O)OC3 [MMV102270]	-1.791	18.1463	116.78				
O=C(Nc1nnc(-c2ccc(Cl)cc2)o1)c1nc2ccccc2s1 [MMV102833]	3.0788	1.422	141.762				
CC(C)Nc1ncnc2c1cnn2-c1ccc(Cl)cc1 [MMV108465]	-2.878	28.117	65.6735				
CCOc1ccc(C(=O)NCCc2ccccc2)cc1 [MMV124656]	-0.3368	10.9951	194.706				
Clc1cccc(-c2nnc(-c3ccccc3)o2)c1 [MMV141011]	-1.462	-13.7141	31.8959				
NC1C2CC3CC(C2)CC1C3 (stereo not drawn) [MMV180402]	-0.5217	-14.4779	111.504				
O=C(CC1Sc2ncnn2C1=O)Nc1ccc(Br)cc1 (stereo not drawn) [MMV214956]	-1.614	-20.0728	47.1606				
O=C(O)CSc1cc(NS(=O)(=O)c2cccc3cccnc23)c2ccccc2c1O [MMV218827]	-0.1296	0.539	73.5027				
Cc1ccc(S(=O)(=O)Nc2cccc3cccnc23)cc1 [MMV233495]	2.157	26.0665	70.919				
O=C(O)c1cc(-c2ccc(Br)cc2)nc2ccc(Cl)cc12 [MMV247764]	0.5774	-0.4305	115.677				
O=S(=O)(Nc1ccc(O)cc1)c1cccc2cccnc12 [MMV251679]	0.1251	-17.8593	83.9227				
CCN1CCN(Cc2nc3ccc([N+](=O)[O-])cc3c(=O)n2-c2ccccc2F)CC1 [MMV275100]	0.006823	-0.1551	107.175				

Structure (SMILES)	PGI d5 (relative PGI release) [1, 3] [%]	PGI d12 (relative PGI release) [1, 3] [%]	Viability d12 (relative viability) [2, 4] [%]	PGI d5 (relative PGI release) [1, 5] [%]	PGI d12 (relative PGI release) [1, 5] [%]	Viability d12 (relative viability) [2, 6] [%]	Viability d12 (relative viability) ([2]; 10 µM) [%]
Oc1ccc2[nH]c(-c3ccccc3)nc2c1 [MMV292173]	-3.6461	2.293	56.2358				
COc1ccc(CNC(=O)C(NS(=O)(=O)c2ccc3nc(C)sc3c2)C(C)C)cc1 (stereo not drawn) [MMV303733]	-2.8306	-9.3435	97.8993				
COc1ccc(NC(=O)c2cc3ccccn3n2)cc1 [MMV374187]	0.2305	3.37	96.2395				
N=c1n(CCN2CCCCC2)c2ccccc2n1CC(O)COc1ccc(Cl)cc1Cl (stereo not drawn) [MMV394033]	6.943	70.607	9.628	0.57	0.65	90.34	
Oc1cc(-c2cccc3ccccc23)[nH]n1 [MMV422940]	-1.4338	-25.9471	50.1817				
O=C(O)C(Cc1c[nH]c2ccccc12)N1C(=O)c2ccccc2C1=O (stereo not drawn) [MMV452821]	1.873	0.986	132.36				
NC(=O)c1ccccc1NC(=O)c1ccc(C(=O)Nc2ccccc2C(N)=O)cc1 [MMV508427]	-1.548	-12.1939	83.3301				
Oc1c(C(Nc2ccccn2)c2ccccc2)ccc2cccnc12 (stereo not drawn) [MMV565773]	-0.6323	-6.242	113.31				
O=C(c1cc(O)nc2ccccc12)N1CCN(c2ccccc2)CC1 [MMV596723]	0.1357	-19.4413	136.964				
COc1ccc(-n2cnc3cc(NCc4ccco4)ccc32)cc1 [MMV617332]	0.2921	-0.1496	117.278				
CN(Cc1ccc(C(C)(C)C)cc1)Cc1cccc2ccccc12.Cl [MMV637104]	-1.862	-24.2411	73.8114				
O=c1[nH]cnc2c1ncn2[C@H]1CC[C@@H](CO)O1 [MMV637306]	-0.8027	5.98					229.844
Nc1nc(F)nc2c1ncn2[C@@H]1O[C@H](CO)[C@@H](O)[C@@H]1O [MMV637413]	-0.694	1.228	168.919				
CCC(C)n1ncn(-c2ccc(N3CCN(c4ccc(OCC5COC(Cn6cncn6)(c6ccc(Cl)cc6Cl)O5)cc4)CC3)cc2)c1=O (stereo not drawn) [MMV637528]	-2.417	-24.1326	37.4902				
CC(=O)N1CCN(c2ccc(OC[C@@H]3CO[C@@](Cn4ccnc4)(c4ccc(Cl)cc4Cl)O3)cc2)CC1 [MMV637533]	1.26	-24.3929	224.858				
CC1CCc2c(N3CCC(O)CC3)c(F)cc3c(=O)c(C(=O)O)cn1c23 (stereo not drawn) [MMV637659]	-2.748	-5.473					137.188
CC(N)C12CC3CC(CC(C3)C1)C2 (stereo not drawn) [MMV637855]	0.08745	-0.5462	63.7477				

From article PMC12410356 (International Journal for Parasitology: Drugs and Drug …, 2025)
